Publication PMC6357004 (Viruses, 2018)

Columns and labels:
[1] = system: B/Wyoming/07/2017 (B/Yamagata lineage) D198N variant; conditions: cited from earlier work
[2] = biological target: neuraminidase (NA) of recombinant influenza B/Phuket/3073/2013 D198E virus (Influenza B virus, UniProt A0A1S5RAG6, D197E); format: biochemical, influenza B/Phuket/3073/2013 virus
[3] = biological target: neuraminidase (NA) of recombinant influenza B/Phuket/3073/2013 D198N virus (Influenza B virus, UniProt A0A1S5RAG6, D197N); format: biochemical, influenza B/Phuket/3073/2013 virus
[4] = biological target: neuraminidase (NA) of recombinant influenza B/Phuket/3073/2013 H136N virus (Influenza B virus, UniProt A0A1S5RAG6, H134N); format: biochemical, influenza B/Phuket/3073/2013 virus
[5] = biological target: neuraminidase (NA) of recombinant influenza B/Phuket/3073/2013 R152K virus (Influenza B virus, UniProt A0A1S5RAG6, R150K); format: biochemical, influenza B/Phuket/3073/2013 virus
[6] = biological target: neuraminidase (NA) of recombinant influenza B/Phuket/3073/2013 N294S virus (Influenza B virus, UniProt A0A1S5RAG6, N294S); format: biochemical, influenza B/Phuket/3073/2013 virus
[7] = biological target: neuraminidase (NA) of recombinant influenza B/Phuket/3073/2013 I222T virus (Influenza B virus, UniProt A0A1S5RAG6, I221T); format: biochemical, influenza B/Phuket/3073/2013 virus
[8] = read-out: Neuraminidase Inhibitors IC50 values

**Q.** For `CC(=O)N[C@H]1[C@H]([C@H](O)[C@H](O)CO)OC(C(=O)O)=C[C@@H]1N=C(N)N` [Zanamivir, zanamivir], which susceptibility phenotype [1] is on record?
**A.** susceptible

**Q.** With `CCC(CC)[C@H](NC(C)=O)[C@@H]1[C@H](O)[C@@H](C(=O)O)C[C@H]1N=C(N)N` [Peramivir, peramivir] as the compound, how does the “Folds (fold changes according to WT virus)” value [2] read?
**A.** 21 fold

**Q.** And the IC50 [2, 8]?
**A.** 0.0155 µM

**Q.** What about the “Folds (fold changes according to WT virus)” value [3] of the same compound?
**A.** 9 fold

**Q.** And the IC50 [3, 8]?
**A.** 0.00692 µM

**Q.** What about the “Folds (fold changes according to WT virus)” value [4] of the same compound?
**A.** 240 fold

**Q.** And the IC50 [4, 8]?
**A.** 0.177 µM

**Q.** And the “Folds (fold changes according to WT virus)” value [5]?
**A.** 572 fold

**Q.** And the IC50 [5, 8]?
**A.** 0.423 µM

**Q.** And the “Folds (fold changes according to WT virus)” value [6]?
**A.** 46 fold

**Q.** And the IC50 [6, 8]?
**A.** 0.0337 µM

**Q.** And the “Folds (fold changes according to WT virus)” value [7]?
**A.** 26 fold

**Q.** What about the IC50 [7, 8] of the same compound?
**A.** 0.0195 µM
